ChEMBL document CHEMBL2406908, “Re-engineering of the duocarmycin structural architecture enables bioprecursor development targeting CYP1A1 and CYP2W1 for biological activity” (J Med Chem, 2013)
Calls of active or inactive are those of the source. The calls are words filed in the database; no cut-off is given here.

Experiments:
[1] = test system: CHO; experiment: Antiproliferative activity against CHO cells expressing CYP1A1 assessed as growth inhibition after 96 hrs by MTT assay; type: functional, cell-based; settings: Cricetulus griseus
[2] = test system: CHO; experiment: Antiproliferative activity against CHO cells assessed as growth inhibition after 96 hrs by MTT assay; type: cell-based; settings: Cricetulus griseus
[3] = test system: CYP1A1; experiment: Potentiation factor, ratio of IC50 for wild type CHO cells to IC50 of CHO cells expressing CYP1A1; type: ADME, cell-based, Cricetulus griseus; settings: chinese hamster, wild type CHO cells and CHO cells expressing CYP1A1; read-out: Ratio IC50
[4] = test system: RT-112; experiment: Antiproliferative activity against human RT112 cells expressing CYP1A1 assessed as growth inhibition after 96 hrs by MTT assay; type: functional, cell-based; settings: RT-112, 96 h
[5] = test system: CYP1A1; experiment: Potentiation factor, ratio of IC50 for wild type HEK293 cells to IC50 of HEK293 cells expressing CYP1A1; type: ADME, cell-based; settings: human, wild type HEK293 cells and HEK293 cells expressing CYP1A1; read-out: Ratio IC50
[6] = test system: HEK293; experiment: Antiproliferative activity against human HEK293 cells expressing CYP2W1 assessed as growth inhibition after 96 hrs by MTT assay; type: functional, cell-based; settings: HEK293, 96 h
[7] = test system: HEK293; experiment: Antiproliferative activity against human HEK293 cells assessed as growth inhibition after 96 hrs by MTT assay; type: cell-based; settings: HEK293, 96 h
[8] = Potentiation factor, ratio of IC50 for human EJ138 cells treated with extract obtained from 1 hr incubation of compound with control bactosome to IC50 of human EJ138 treated with extract obtained from 1 hr incubation of compound with CYP1A2 bactosome; type: functional
[9] = Potentiation factor, ratio of IC50 for human EJ138 cells treated with extract obtained from 1 hr incubation of compound with control bactosome to IC50 of human EJ138 treated with extract obtained from 1 hr incubation of compound with CYP2D6 bactosome; type: functional
[10] = Antiproliferative activity against human EJ138 cells treated with extract obtained from 1 hr incubation of compound with CYP1B1 bactosome measured after 96 hrs by MTT assay; type: functional, cell-based
[11] = Antiproliferative activity against human EJ138 cells after 96 hrs by MTT assay; type: functional, cell-based; settings: EJ138, 96 h
[12] = Potentiation factor, ratio of IC50 for human EJ138 cells treated with extract obtained from 1 hr incubation of compound with control bactosome to IC50 of human EJ138 treated with extract obtained from 1 hr incubation of compound with CYP1B1 bactosome; type: functional
[13] = Antiproliferative activity against human EJ138 cells treated with extract obtained from 1 hr incubation of compound with CYP1A1 bactosome measured after 96 hrs by MTT assay; type: functional, cell-based
[14] = Antiproliferative activity against human EJ138 cells treated with extract obtained from 1 hr incubation of compound with CYP3A4 bactosome measured after 96 hrs by MTT assay; type: functional, cell-based
[15] = Potentiation factor, ratio of IC50 for human EJ138 cells treated with extract obtained from 1 hr incubation of compound with control bactosome to IC50 of human EJ138 treated with extract obtained from 1 hr incubation of compound with CYP1A1 bactosome; type: functional
[16] = Drug metabolism in mouse liver microsomes at 100 uM after 2 hrs by HPLC/mass spectrometry analysis in presence of NADPH; type: ADME, Microsome
[17] = Potentiation factor, ratio of IC50 for human EJ138 cells treated with extract obtained from 1 hr incubation of compound with control bactosome to IC50 of human EJ138 treated with extract obtained from 1 hr incubation of compound with CYP3A4 bactosome; type: functional
[18] = Antiproliferative activity against human EJ138 cells treated with extract obtained from 1 hr incubation of compound with CYP2D6 bactosome measured after 96 hrs by MTT assay; type: functional, cell-based
[19] = test system: Liver; experiment: Drug metabolism in mouse liver homogenate at 100 uM up tp 120 mins by LC/MS analysis; type: ADME, tissue-based; settings: tissue homogenate, 2 h
[20] = Antiproliferative activity against human EJ138 cells treated with extract obtained from 1 hr incubation of compound with CYP1A2 bactosome measured after 96 hrs by MTT assay; type: functional, cell-based
[21] = Antiproliferative activity against human EJ138 cells treated with extract obtained from 1 hr incubation of compound with control bactosome measured after 96 hrs by MTT assay; type: functional, cell-based
[22] = test system: HEK293; experiment: Induction of cell death in human HEK293 cells expressing CYP2W1 t 0.5 to 5 uM after 48 hrs by trypan blue assay; type: functional, cell-based
[23] = test system: HEK293; experiment: Induction of DNA damage in human HEK293 cells expressing CYP2W1 assessed as phosphorylation of gammaH2A.X at 0.5 to 5 uM after 48 hrs by Western blotting analysis; type: functional, cell-based
[24] = test system: RT-112; experiment: Induction of cell death in human RT112 cells after 48 hrs at 0.5 to 5 uM by trypan blue assay; type: functional, cell-based
[25] = test system: HEK293; experiment: Induction of cell death in mock-transfected human HEK293 cells t 0.5 to 5 uM after 48 hrs by trypan blue assay; type: cell-based; settings: hek293, 48 h
[26] = test system: HEK293; experiment: Induction of DNA damage in mock-transfected human HEK293 assessed as phosphorylation of gammaH2A.X at 0.5 to 5 uM after 48 hrs by Western blotting analysis; type: cell-based; settings: hek293, 48 h
[27] = test system: RT-112; experiment: Induction of DNA damage in human RT112 cells assessed as phosphorylation of gammaH2A.X at 0.5 to 5 uM after 48 hrs by Western blotting analysis; type: functional, cell-based

SMILES: O=C(c1cc2cc(F)cc(F)c2[nH]1)N1CC(CCl)c2c1ccc1[nH]ccc21 (stereo not drawn)
- IC50 [1]: > 1 µM
- IC50 [2]: 21 µM
- selectivity ratio [3]: < 21
- IC50 [4]: 12.3 µM
- selectivity ratio [5]: 1.1
- IC50 [6]: 9.1 µM

SMILES: COc1ccc2[nH]c(C(=O)N3CC(CCl)c4c3cc(O)c3[nH]ccc43)cc2c1 (stereo not drawn)
- IC50 [1]: 0.000624 µM
- IC50 [2]: 0.000167 µM
- selectivity ratio [3]: 0.2
- IC50 [4]: 0.000125 µM
- selectivity ratio [5]: 1.2
- IC50 [6]: 0.000376 µM
- IC50 [7]: 0.000453 µM

SMILES: COc1ccc2[nH]c(C(=O)N3CC(CCl)c4c3cc(O)c3ccccc43)cc2c1 (stereo not drawn)
- IC50 [1]: 102 µM
- IC50 [2]: 194 µM
- selectivity ratio [3]: 1.9
- IC50 [4]: 151 µM
- selectivity ratio [5]: 0.2
- IC50 [6]: 641 µM

SMILES: CS(=O)(=O)c1cc(F)cc2cc(C(=O)N3CC(CCl)c4c3ccc3[nH]ccc43)[nH]c12 (stereo not drawn)
- IC50 [1]: 4.1 µM
- IC50 [2]: 3.2 µM
- selectivity ratio [3]: 0.8
- IC50 [4]: 7.7 µM
- selectivity ratio [5]: 0.9
- IC50 [6]: 12.2 µM

SMILES: COc1ccc2[nH]c(C(=O)N3CC(CCl)c4c3ccc3ccccc43)cc2c1 (stereo not drawn)
- IC50 [1]: 0.96 µM
- Ratio IC50 [8]: 0.9
- Ratio IC50 [9]: 0.79
- IC50 [10]: 1.53 µM
- IC50 [11]: 2.88 µM
- Ratio IC50 [12]: 1.3
- IC50 [2]: > 50 µM
- IC50 [13]: 0.02 µM
- IC50 [14]: 1.04 µM
- IC50 [4]: > 50 µM
- Ratio IC50 [15]: 100
- Drug metabolism [16]: Active
- Ratio IC50 [17]: 1.91
- IC50 [6]: > 50 µM
- IC50 [18]: 2.53 µM
- Drug metabolism [19]: Active
- IC50 [20]: 2.23 µM
- IC50 [21]: 1.99 µM

SMILES: COc1ccc2[nH]c(C(=O)N3CC(CCl)c4c3ccc3[nH]ccc43)cc2c1 (stereo not drawn)
- IC50 [1]: < 0.001 µM
- IC50 [2]: 3.2 µM
- Activity [22]: Active
- selectivity ratio [3]: > 3200
- IC50 [4]: 0.2 µM
- Activity [23]: Active
- Activity [24]: Active
- selectivity ratio [5]: 14.7
- IC50 [6]: 0.6 µM
- Activity [25]: Non-toxic
- Activity [26]: Non-toxic
- Activity [27]: Active

SMILES: O=C(c1cc2cc(F)c(F)cc2[nH]1)N1CC(CCl)c2c1ccc1[nH]ccc21 (stereo not drawn)
- IC50 [1]: 0.23 µM
- IC50 [2]: 18.4 µM
- selectivity ratio [3]: 80
- IC50 [4]: 1.8 µM
- selectivity ratio [5]: 2.6
- IC50 [6]: 3.7 µM

SMILES: COc1cc2cc(C(=O)N3CC(CCl)c4c3ccc3[nH]ccc43)[nH]c2cc1OC (stereo not drawn)
- IC50 [1]: < 0.001 µM
- IC50 [2]: 3 µM
- Activity [22]: Active
- selectivity ratio [3]: > 3000
- IC50 [4]: 0.3 µM
- Activity [23]: Active
- Activity [24]: Active
- selectivity ratio [5]: 1.3
- IC50 [6]: 6.1 µM
- Activity [25]: Non-toxic
- Activity [26]: Non-toxic
- Activity [27]: Active

SMILES: O=C(c1cc2cc(Cl)ccc2[nH]1)N1CC(CCl)c2c1ccc1[nH]ccc21 (stereo not drawn)
- IC50 [1]: < 0.001 µM
- IC50 [2]: 23.2 µM
- selectivity ratio [3]: > 23200
- IC50 [4]: 0.7 µM
- selectivity ratio [5]: 41.7
- IC50 [6]: 0.3 µM

SMILES: O=C(c1cc2cc(O)ccc2[nH]1)N1CC(CCl)c2c1ccc1[nH]ccc21 (stereo not drawn)
- IC50 [1]: 0.3 µM
- IC50 [2]: 3.3 µM
- selectivity ratio [3]: 11
- IC50 [4]: 32.7 µM
- selectivity ratio [5]: 0.8
- IC50 [6]: 20.5 µM

SMILES: COc1cc2cc(C(=O)N3CC(CCl)c4c3ccc3[nH]ccc43)[nH]c2c(OC)c1OC (stereo not drawn)
- IC50 [1]: 3.1 µM
- IC50 [2]: 7.5 µM
- Activity [22]: Active
- selectivity ratio [3]: 2.4
- IC50 [4]: 7 µM
- Activity [23]: Active
- Activity [24]: Active
- selectivity ratio [5]: 1.1
- IC50 [6]: 11.1 µM
- Activity [25]: Non-toxic
- Activity [26]: Non-toxic
- Activity [27]: Active

SMILES: O=C(c1cc2cc(F)ccc2[nH]1)N1CC(CCl)c2c1ccc1[nH]ccc21 (stereo not drawn)
- IC50 [1]: 0.09 µM
- IC50 [2]: 22.6 µM
- selectivity ratio [3]: 251
- IC50 [4]: 11.1 µM
- selectivity ratio [5]: 21
- IC50 [6]: 0.5 µM
